From PMC6952399, “Structures of lipoprotein signal peptidase II from Staphylococcus aureus complexed with antibiotics globomycin and myxovirescin” (Nature Communications, 2020)

Tests used:
[1] = target: T1, LspPae (lipoprotein signal peptidase II from Pseudomonas aeruginosa) (Pseudomonas aeruginosa, UniProt Q9HVM5); experiment: Coupled gel-shift peptidase assay with proICP substrate, LspPae WT; type: biochemical
T1 construct: made in house
T1 sequence (Q9HVM5 1-169): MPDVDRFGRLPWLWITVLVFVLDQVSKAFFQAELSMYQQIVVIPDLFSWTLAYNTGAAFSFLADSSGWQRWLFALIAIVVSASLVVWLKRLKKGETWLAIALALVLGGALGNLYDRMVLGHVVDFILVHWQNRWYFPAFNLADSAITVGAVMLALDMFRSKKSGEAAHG
Excerpt: (§1) The peptidase activity of LspMrs and P. aeruginosa LspA (LspPae) was quantified in a coupled gel-shift assay developed previously for LspPae[5]. The P. aeruginosa lipoprotein pre-proICP and the first two enzymes in the bacterial lipoprotein processing pathway Lgt and LspA were expressed and purified, as described. For FRET assays LspMrs was expressed and purified as described above and LspPae was expressed and purified as described in a published protocol.
Gel-shift activity assay. For time course assays, reactions were set up containing 12 µM pre-proICP, 250 µM DOPG (Avanti Polar Lipids, Inc.) and 1.2 µM Lgt in Buffer E (50 mM Tris/HCl pH 7.5, 150 mM NaCl, 1 mM DTT, 0.02%(w/v) LMNG). The assay mixtures were incubated at 37 °C and 200 rpm for 60 min to allow Lgt catalysed conversion of pre-proICP to the LspA substrate proICP. The LspA reaction was initiated by adding 0.5 µM LspA directly to the assay mixture. At timed intervals, 20 µL samples were removed and the reaction was stopped by adding 10 µL of 4x SDS loading buffer (62.5 mM Tris/HCl pH 6.8, 2.5%(w/v) SDS, 0.002%(w/v) bromophenol blue, 0.5 M β-mercaptoethanol, 10%(v/v) glycerol). To compare the activity of wild-type and mutant LspMrs, assays were allowed to proceed for 30 min before being stopped with SDS loading buffer. […] The reactions were initiated by adding LspA and allowed to proceed for 30 min. After the reaction was stopped with SDS buffer, 10 μL aliquots were loaded on precast Mini-PROTEAN® TGX^TM gels (Bio-Rad) and run with Tris/glycine buffer (25 mM Tris/HCl pH 8.0, 250 mM glycine, 0.1%(w/v) SDS). The gels were stained using InstantBlue™ (Expedeon) Coomassie based stain and were imaged using a Bio-Rad Gel-Doc imager (Supplementary Fig. 4). Band intensities of ICP were quantified using Image Lab. Dose-response plots to determine IC50 values were generated using Prism® 5 software from GraphPad.

[2] = target: T2, LspMrs N52A (Staphylococcus aureus, UniProt Q6GHN9, N52A); experiment: Gel-shift peptidase assay, LspMrs N52A mutant; type: biochemical, methicillin-resistant Staphylococcus aureus
T2 construct: MGSS-hexahistidine-SSGR-TEV site (ENLYFQ) (N, cleaved yes); made in house; host or cells: E. coli C43 (DE3)
Method: LspA mutant genes (N52A, N52Q, G54A, G54P, R110A, R110K, D118N, N133A, N133Q and D136N) were obtained by site-directed mutagenesis of the wild-type lspA construct in pETDuet. Mutagenesis was performed using the Q5® Site-Directed Mutagenesis Kit (New England Biolabs) and specific primers are listed in Supplementary Table 5. The correct mutations were confirmed by sequencing (Eurofins Genomics). Expression and purification of all LspMrs wild-type and mutants for enzyme assays were performed as described above with the following modifications: TALON® Metal Affinity Resin (Clontech) was used for IMAC purification and the detergent DDM was used for membrane solubilisation and protein purification.
as §1
Gel-shift activity assay. […] Band intensities of ICP were quantified using Image Lab. […]

[3] = tested on: LspA from E. coli; parameters: method as in earlier work; settings: ref 7 (supplementary references); cited from earlier work

Row | Compound | IC50 [1] [µM] | remaining activity at 50 µM ([1]; read-out: Normalized activity, Log[Myxovirescin](M) -4.30103) [%] | IC50 [2] [µM] | remaining activity at 1000 µM ([1]; Log[Globomycin](M) -3, read-out: Normalized activity) [%] | remaining activity at 100 µM ([1]; Log[Globomycin](M) -4, read-out: Normalized activity) [%] | inhibition type [3]
1 | CCCC1OC(=O)C(C)CC(C)CCCCC(=O)CCCC(CC)C=CC=C(COC)CCC(O)C(O)CC(O)CNC1=O (stereo not shown) [myxovirescin, myxovirescin A1] | 1.09 ± 0.34 | 95.7 |  |  |  | 
2 | CCCCCC[C@H]1OC(=O)CNC(=O)[C@H]([C@H](C)O)NC(=O)[C@H](CO)NC(=O)[C@H]([C@H](C)CC)NC(=O)[C@H](CC(C)C)N(C)C(=O)[C@@H]1C [globomycin] | 0.64 ± 0.16 |  | 1.23 ± 0.59 | 94.2 | 94 | non-competitive
